Consider 5 compounds from US20060247184A1, “Treatment and prophylaxis of diseases and infections pigs and poultry” (Eco Animal Health Ltd., priority 2000, published 2006).

One experiment has as its system Mycoplasma Synoviae. Briefly: Sensitivity (MIC) for AIVLOSIN and tetracyclines, alone and in combination. As to conditions: for MIC: Mycoplasmopsis synoviae, alone; for MIC of each for combination CTC + AIV: in combination CTC + AIV; for MIC of each for combination OTC + AIV: in combination OTC + AIV. In kind it is cell-based.
Experiment [1] deals with Brachyspira hyodysenteriae. Briefly: Sensitivity (MIC) for AIVLOSIN and chlortetracycline, alone and in combination. In kind it is cell-based. As to conditions: for MIC: Brachyspira hyodysenteriae, alone; for MIC of each for combination of CTC + AIV: in combination CTC + AIV. An excerpt: 4. Sensitivity of Bacteria for AIVLOSIN and Tetracyclines, Alone and in Combination.
Sensitivity is expressed as the lowest concentration of an antibiotic (in mcg/ml) that inhibits the growth of the test bacteria (MIC=Minimum Inhibitory Concentration).
Brachyspira Hyodysenteriae

Experiment [2] concerns Brachyspira hyodysenteriae. Briefly: Swine dysentery animal disease model, prevention of clinical disease. Type of experiment: in vivo, pigs.
Experiment [3] deals with Brachyspira hyodysenteriae. Briefly: Swine dysentery, treatment of clinical outbreak. In kind it is in vivo, pigs.
For another experiment, the system named is Clostridium perfringens. In kind it is cell-based.
Experiment [4] has as its system Brachyspira hyodysenteriae. Briefly: In vitro MIC against Brachyspira hyodysenteriae strains (Table 2). Type of experiment: cell-based.

Values after ≈ are worked out from the molar mass of the structure shown. Like-named read-outs stand apart in the source and are kept apart here.

With `CN(C)[C@@H]1C(O)=C(C(N)=O)C(=O)[C@@]2(O)C(O)=C3C(=O)c4c(O)ccc(Cl)c4[C@@](C)(O)[C@H]3C[C@@H]12` [CTC, chlortetracycline], the minimum inhibitory concentration (MIC) in the experiment on Mycoplasma Synoviae (strain 173) was determined as 0.78 µg/mL; in the experiment with Mycoplasma Synoviae (strain 185), 0.78 µg/mL; in the experiment on Mycoplasma Synoviae (strain 211), 0.39 µg/mL; in the experiment on Mycoplasma Synoviae (strain 312), 3.12 µg/mL; with Mycoplasma Synoviae (strain wvu 1835), 0.39 µg/mL; in experiment [1] (strain AF6), 0.5 µg/mL. Also, the MIC in experiment [1] (strain P265-9-97), in experiment [1] (strain P268-9-97) and in experiment [1] (strain P578-6-97) was 16 µg/mL throughout. The “MIC of each for combination CTC + AIV” value in the experiment with Mycoplasma Synoviae (strain 173), in the experiment with Mycoplasma Synoviae (strain 185), in the experiment with Mycoplasma Synoviae (strain 211), in the experiment on Mycoplasma Synoviae (strain 312) and in the experiment with Mycoplasma Synoviae (strain wvu 1835) was 0.1 µg/mL in each case. Further, the “MIC of each for combination of CTC + AIV” value in experiment [1] (strain AF6) is 0.125 µg/mL; in experiment [1] (strain P265-9-97), 4.0 µg/mL; in experiment [1] (strain P268-9-97), 8.0 µg/mL; in experiment [1] (strain P578-6-97), 8.0 µg/mL.

With `C=C[C@]1(C)C[C@@H](OC(=O)CSCCN(CC)CC)[C@]2(C)[C@H](C)CC[C@]3(CCC(=O)[C@H]32)[C@@H](C)[C@@H]1O` [Tiamulin, tiamulin], in experiment [2] (artificially infected pigs), the “Period for which the drug needs to be provided to prevent an outbreak” value is reported as “whole period in which the pigs are at risk”. In experiment [3] (100 ppm 10 days), the “Mean days to clear B.Hyo” value is on record as 5.8 days and the “Mean days to recovery” value turned out to be 4.4 days. In addition, the “Mean score at start” value in experiment [3] (100 ppm 10 days, clinical scoring 0 = normal, 6 = moribund, baseline) is 4.0.

`CN(C)[C@@H]1C(O)=C(C(N)=O)C(=O)[C@@]2(O)C(O)=C3C(=O)c4c(O)cccc4[C@@](C)(O)[C@H]3[C@H](O)[C@@H]12` [OTC, oxytetracycline]: the MIC was 0.39 µg/mL with Mycoplasma Synoviae (strain 173); 0.2 µg/mL in the experiment with Mycoplasma Synoviae (strain 185); 0.39 µg/mL in the experiment on Mycoplasma Synoviae (strain 211); 0.78 µg/mL in the experiment on Mycoplasma Synoviae (strain 312); 0.39 µg/mL with Mycoplasma Synoviae (strain wvu 1835). Besides, the “MIC of each for combination OTC + AIV” value in the experiment with Mycoplasma Synoviae (strain 173), in the experiment with Mycoplasma Synoviae (strain 185), in the experiment on Mycoplasma Synoviae (strain 211), with Mycoplasma Synoviae (strain 312) and with Mycoplasma Synoviae (strain wvu 1835) was 0.1 µg/mL in each case.

Consider zinc bacitracin, for which the minimum inhibitory concentration (MIC) in the experiment on Clostridium perfringens (strain 378) is 3.125 µg/mL; with Clostridium perfringens (strain 389), 1.56 µg/mL; in the experiment with Clostridium perfringens (strain 392), 1.56 µg/mL; against Clostridium perfringens (strain 395) it was 3.125 µg/mL; with Clostridium perfringens (strain 410), 3.125 µg/mL; in the experiment with Clostridium perfringens (strain 412), 6.25 µg/mL. The MIC against Clostridium perfringens (strain 413) was determined as 6.25 µg/mL.

As for `CC[C@H]1OC(=O)C[C@@H](O)[C@H](C)[C@@H](O[C@@H]2O[C@H](C)[C@@H](O[C@H]3C[C@@](C)(O)[C@@H](O)[C@H](C)O3)[C@H](N(C)C)[C@H]2O)[C@@H](CC=O)C[C@@H](C)C(=O)/C=C/C(C)=C/[C@@H]1CO[C@@H]1O[C@H](C)[C@@H](O)[C@@H](OC)[C@H]1OC` [Tylosin, tylosin], the “Period for which the drug needs to be provided to prevent an outbreak” value in experiment [2] (pig, in vivo) is recorded as not below 21 days. The compound further came in with an MIC in experiment [4] (strain AF 6/80) of 6.25 µg/mL (≈ 6.82 µM). The MIC in experiment [4] (strain PI8A) was more than 200 µg/mL. The compound also yielded an MIC in experiment [4] (strain PO268-07.98) of more than 200 µg/mL. Also, in experiment [3] (100 ppm 21 days), the “Mean days to clear B.Hyo” value stood at 3.0 days, the “Mean days to recovery” value is 2.1 days and the “Mean score at start” value was 3.7.

Usually MIC stands for the lowest concentration found to suppress growth.
